Where a SMILES comes first, the peptide text is derived from it. Bridges are numbered along the chain shown (N, C = ends). [ ]: non-standard residue; d: D form. The star is where a group is joined. hPhe(3-Cl-4-CF3) = N[C@@H](CCc1ccc(C(F)(F)F)c(Cl)c1)C(=O)O; NPrPhe(4-CF3) = CCCN[C@@H](Cc1ccc(C(F)(F)F)cc1)C(=O)O; NEtPhe(4-CF3) = CCN[C@@H](Cc1ccc(C(F)(F)F)cc1)C(=O)O; hPhe(3,4-Cl2) = N[C@@H](CCc1ccc(Cl)c(Cl)c1)C(=O)O; NMeGly(cPent) = CN[C@H](C(=O)O)C1CCCC1; Hyp = O=C(O)[C@@H]1C[C@@H](O)CN1; NMeD = CN[C@@H](CC(=O)O)C(=O)O; NMeL = CN[C@@H](CC(C)C)C(=O)O; Morpholide = C1CN(*)CCO1; NMeA = CN[C@@H](C)C(=O)O; Ac5c = NC1(C(=O)O)CCCC1; Aze = O=C(O)[C@@H]1CCN1; Ac4c = NC1(C(=O)O)CCC1; Sar = CNCC(=O)O
Columns and labels:
[1] = molecular target: GDP-bound NRAS wild-type protein (Homo sapiens, UniProt P01111); assay: Binding to NRAS by surface plasmon resonance (SPR), KD and KD ratio to KRAS
How it was run: (§1)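 Captured GDP-RAS (~100–300 RU) was exposed to increasing compound concentrations, 75 s per step, in running buffer with 10 µM GDP, 10 mM MgCl2 and 4% DMSO at pH 7.4.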

[2] = tested on: human lung cancer strain NCI-H441; assay type: cell-based
How it was run: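 Step one: dispense the test compound in serial DMSO dilutions. Step three: add the reagent and measure […].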

[3] = molecular target: HRAS wild-type protein (Homo sapiens, UniProt P01112); assay: Binding to HRAS by surface plasmon resonance (SPR), KD and KD ratio to KRAS
How it was run: as §1

[4] = ratio of KD value for GDP-bound NRAS wild-type protein to KD value for KRAS (SPR)
[5] = ratio of KD value for HRAS wild-type protein to KD value for KRAS (SPR)
[6] = ratio of the KD value with respect to GDP-bound NRAS wild-type protein to the KD value with respect to KRAS
[7] = ratio of the KD value with respect to HRAS wild-type protein to the KD value with respect to KRAS
[8] = ratio of KD for GDP-bound NRAS wild-type protein to KD for KRAS
[9] = ratio of KD for HRAS wild-type protein to KD for KRAS

Sequence of HRAS wild-type protein (P01112 whole entry): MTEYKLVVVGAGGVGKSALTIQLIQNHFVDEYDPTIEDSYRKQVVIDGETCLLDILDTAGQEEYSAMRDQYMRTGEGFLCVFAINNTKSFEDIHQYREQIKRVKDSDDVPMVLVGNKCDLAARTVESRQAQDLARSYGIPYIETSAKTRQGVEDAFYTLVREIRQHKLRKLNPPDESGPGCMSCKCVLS
Sequence of GDP-bound NRAS wild-type protein (P01111 whole entry): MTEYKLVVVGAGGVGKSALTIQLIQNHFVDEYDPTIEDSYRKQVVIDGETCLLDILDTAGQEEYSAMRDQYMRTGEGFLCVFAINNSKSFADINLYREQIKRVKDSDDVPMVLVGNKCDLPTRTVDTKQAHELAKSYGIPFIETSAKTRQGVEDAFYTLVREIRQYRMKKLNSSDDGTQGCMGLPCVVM

Compound	NRAS /KRAS [1, 4]	IC50 [2]	HRAS /KRAS [3, 5]	NRAS /KRAS [1, 6]	HRAS /KRAS [3, 7]	NRAS /KRAS [1, 8]	HRAS /KRAS [3, 9]
CCO[C@@H]1C[C@H]2C(=O)NC3(CC(F)(F)C3)C(=O)N(C)[C@@H](C3CCCC3)C(=O)N(C)[C@H](C(=O)N(C)CC)CC(=O)N(C)[C@@H](CC3CC3)C(=O)N[C@@H]([C@@H](C)CC)C(=O)N(C)CC(=O)N(C)[C@H]3C/C=C\CCN(C3=O)[C@@H](Cc3ccc(C(F)(F)F)cc3)C(=O)N(C)CC(=O)N[C@@H](CCc3cc(F)c(C(F)(F)F)c(F)c3)C(=O)N2C1 [PP1738]	AA (a compound having 20 or more is denoted as AA)	0.0051 µM	A (a compound having 10 or more and less than 20 is denoted as A)				
CCO[C@@H]1C[C@H]2C(=O)NC3(CCCC3)C(=O)N(C)[C@@H](C3CCCC3)C(=O)N(C)[C@H](C(=O)N(C)C)CC(=O)N(C)[C@@H](CC(C)C)C(=O)N[C@@H]([C@@H](C)CC)C(=O)N(C)CC(=O)N(C)[C@H]3CCCCCN(C3=O)[C@@H](Cc3ccc(C(F)(F)F)cc3)C(=O)N(C)CC(=O)N[C@@H](CCc3cc(F)c(C(F)(F)F)c(F)c3)C(=O)N2C1 [PP0468]		0.0372 µM		B (a compound having 3 or more and less than 10 is denoted as B)	B (a compound having 3 or more and less than 10 is denoted as B)		
CC[C@H](C)[C@@H]1NC(=O)[C@H](CC(C)C)N(C)C(=O)C[C@@H](C(=O)N(C)C)N(C)C(=O)[C@H](C2CCCC2)N(C)C(=O)C2(CCCC2)NC(=O)[C@@H]2CCCN2C(=O)[C@H](CCc2ccc(C(F)(F)F)c(Cl)c2)NC(=O)CN(C)C(=O)[C@H](Cc2ccc(C)cc2)N2CC=CCOC[C@@H](C2=O)N(C)C(=O)CN(C)C1=O [PP0627]		0.0983 µM		C (A compound having a KD ratio of 0.1 or more and less than 3 is denoted as C)	C (A compound having a KD ratio of 0.1 or more and less than 3 is denoted as C)		
CCCN1C(=O)CN(C)C(=O)CNC(=O)[C@H]([C@@H](C)CC)NC(=O)[C@H](CC(C)C)N(C)C(=O)C[C@@H](C(=O)N2CCOCC2)N(C)C(=O)[C@H](C2CCCC2)N(C)C(=O)C2(CCC2)NC(=O)[C@@H]2C[C@@H](OCC)CN2C(=O)[C@H](CCc2ccc(C(F)(F)F)c(Cl)c2)NC(=O)CN(C)C(=O)[C@@H]1Cc1ccc(C(F)(F)F)cc1 [PP0397] ([NMeL]IG[Sar][NPrPhe(4-CF3)][Sar][hPhe(3-Cl-4-CF3)][Hyp](Et)[Ac4c][NMeGly(cPent)][NMeD]-Morpholide; lactam N-11)		0.0007 µM		C (A compound having a KD ratio of 0.1 or more and less than 3 is denoted as C)	C (A compound having a KD ratio of 0.1 or more and less than 3 is denoted as C)		
CC[C@H](C)[C@@H]1NC(=O)[C@H](CC(C)C)N(C)C(=O)C[C@@H](C(=O)N2CCOCC2)N(C)C(=O)[C@H](C2CCCC2)N(C)C(=O)C2(CCCC2)NC(=O)[C@@H]2CCCN2C(=O)[C@H](CCc2ccc(Cl)c(Cl)c2)NC(=O)CN(C)C(=O)[C@H](Cc2ccc(C(F)(F)F)cc2)N(CC)C(=O)[C@@H]2CCN2C(=O)[C@H](C)N(C)C1=O [PP0223] ([NMeL]I[NMeA][Aze][NEtPhe(4-CF3)][Sar][hPhe(3,4-Cl2)]P[Ac5c][NMeGly(cPent)][NMeD]-Morpholide; lactam N-11)		0.005 µM				C (A compound having a KD ratio of 0.1 or more and less than 3 is denoted as C)	C (A compound having a KD ratio of 0.1 or more and less than 3 is denoted as C)
CCC[C@H]1C(=O)N[C@@H]([C@@H](C)CC)C(=O)N(C2CC2)CC(=O)N(C)[C@H]2C/C=C\CCN(C2=O)[C@@H](Cc2ccc(C(F)(F)F)cc2)C(=O)N(C)CC(=O)N[C@@H](CCc2cc(F)c(C(F)(F)F)c(F)c2)C(=O)N2C[C@H](OCC)C[C@H]2C(=O)N(C)C2(CCC2)C(=O)N(C)[C@@H](C2CCCC2)C(=O)N(C)[C@H](C(=O)N2CCCC2)CC(=O)N1C [PP3112]		0.0324 µM				A (a compound having 10 or more and less than 20 is denoted as A)	B (a compound having 3 or more and less than 10 is denoted as B)
CCCN1C(=O)CN(C)C(=O)[C@@H]2CCCN2C(=O)[C@H]([C@@H](C)CC)NC(=O)[C@H](CC(C)C)N(C)C(=O)C[C@@H](C(=O)N2CCOCC2)N(C)C(=O)[C@H](C2CCCC2)N(C)C(=O)C2(CCCC2)NC(=O)[C@@H]2CCCN2C(=O)[C@H](CCc2ccc(C(F)(F)F)c(Cl)c2)NC(=O)CN(C)C(=O)[C@@H]1Cc1ccc(C(F)(F)F)cc1 [PP0165] ([NMeL]IP[Sar][NPrPhe(4-CF3)][Sar][hPhe(3-Cl-4-CF3)]P[Ac5c][NMeGly(cPent)][NMeD]-Morpholide; lactam N-11)		0.035 µM				B (a compound having 3 or more and less than 10 is denoted as B)	B (a compound having 3 or more and less than 10 is denoted as B)
CCO[C@@H]1C[C@H]2C(=O)NC3(CC(C)(C)C3)C(=O)N(C)[C@@H](C3CCCC3)C(=O)N(C)[C@H](C(=O)N(C)CC)CC(=O)N(C)[C@@H](CC)C(=O)N[C@@H]([C@@H](C)CC)C(=O)N(C)CC(=O)N(C)[C@H]3C/C=C\CCN(C3=O)[C@@H](Cc3ccc(C)cc3)C(=O)N(C)CC(=O)N[C@@H](CCc3ccc(C(F)(F)F)c(OC)c3)C(=O)N2C1 [PP1872]	A (a compound having 10 or more and less than 20 is denoted as A)	0.0124 µM	A (a compound having 10 or more and less than 20 is denoted as A)				

— patent EP4603105A1, “PHARMACEUTICAL COMPOSITION CONTAINING CYCLIC COMPOUND HAVING SELECTIVE KRAS INHIBITORY EFFECT AGAINST HRAS AND NRAS” (CHUGAI SEIYAKU KABUSHIKI KAISHA, priority 2022, dated 2024)
